Laboratory results: patent US4497818A, “2-(1,4-Benzodioxan-2-ylalkyl)imidazoles useful as antihypertensives and platelet aggregation inhibitors” (Syntex (U.S.A.) Inc., priority 1981, dated 1985)
Where two headings read alike, the source gives them in different places.

What was measured:
[1] = target: T1, post-synaptic α-adrenoceptor (α1) (Rattus norvegicus, UniProt P43140); assay: Post-synaptic α-adrenoceptor blockade (epididymal portion of rat vas deferens, contractile effects of phenylephrine); type: cell-based; conditions: phenylephrine agonist, number of determinations in parentheses; for Kb: for 1-ethyl b174 = lot No. 1, b175 = lot No. 2, read-out: pA2 (α1) (converted)
T1 construct: from tissue; host or cells: rat isolated vas deferens, epididymal portion
T1 sequence (P43140 1-466): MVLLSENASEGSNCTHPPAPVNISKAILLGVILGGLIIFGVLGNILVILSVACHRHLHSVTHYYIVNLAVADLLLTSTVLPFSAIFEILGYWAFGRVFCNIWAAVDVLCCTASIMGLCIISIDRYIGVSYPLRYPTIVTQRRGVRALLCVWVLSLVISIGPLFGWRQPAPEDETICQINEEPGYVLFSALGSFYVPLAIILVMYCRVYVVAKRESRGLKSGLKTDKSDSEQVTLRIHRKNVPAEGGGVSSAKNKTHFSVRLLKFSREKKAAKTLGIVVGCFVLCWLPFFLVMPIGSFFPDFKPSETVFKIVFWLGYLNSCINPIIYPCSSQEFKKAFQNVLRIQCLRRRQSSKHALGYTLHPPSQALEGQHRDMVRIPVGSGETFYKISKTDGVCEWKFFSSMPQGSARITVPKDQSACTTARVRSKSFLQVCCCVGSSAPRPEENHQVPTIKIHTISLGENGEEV
Text: The contralateral portions served as control tissues.
J. Pharmacol.; 14: 48-58 (1959).

[2] = LD50, intraperitoneal injection in mice; conditions: mouse, in vivo, ip, per body weight
[3] = system: blood platelets; assay: Platelet aggregation inhibition; type: cell-based; conditions: hydrochloride salt; for inhibition at 500 µM: at 5 × 10^-4 M, read-out: inhibition From Maximum Height (ΔT)
Method: Blood platelets are collected in the standard manner, and incubated in an Aggregation Module Incubator-Cuvette in the presence of either the inhibitor to be tested, or without said inhibitor as a control. The aggregation of the platelets is observed after the addition of an inducer, and the samples are evaluated for the presence of a lag period and the slope of the aggregation curve, as well as the maximum height of the aggregation curve in comparison to the control.

[4] = system: spontaneously hypertensive rats; assay: Antihypertensive activity in spontaneously hypertensive rats; type: in vivo, rat; conditions: 50 mg per kg orally on two consecutive mornings; hydrochloride salt; measured during four hours after second dose
Method: Spontaneously hypertensive rats were divided into groups of four animals each with approximately equal mean systolic blood pressures. One such group serves as a control against another group which is given the compound to be tested. On two consecutive mornings, the test group was dosed orally with 50 mg per kg of 1-ethyl-2-(1,4-benzodioxane-2-ylmethyl)imidazole as a hydrochloride salt which was suspended in a vehicle of water and tween. The control group received vehicle only. Immediately after dosing on the second day, the rats were put in restrainers and placed in a heated chamber at 30° C. for four hours.
During this time, systolic blood pressures were determined at four consecutive 20 second intervals using photoelectric transducers. The mean systolic blood pressure of each rat (as an average of these four measurements) was recorded. The results are given as percentage lowering of the mean systolic blood pressure in the experimental as compared with the control group.

SMILES: c1ccc2c(c1)OCC(CCc1ncc[nH]1)O2 (stereo not drawn) [2-(2-(1,4-benzodioxan-2-yl)ethyl)imidazole]
- Kb [1]: 0.617 µM

SMILES: Cn1ccnc1CC1COc2ccccc2O1 (stereo not drawn) [1-methyl-2-(1,4-benzodioxan-2-ylmethyl)imidazole]
- Kb [1]: 50.1 µM

SMILES: CCn1ccnc1CC1COc2ccccc2O1 (stereo not drawn) [1-ethyl-2-(1,4-benzodioxan-2-ylmethyl)imidazole]
- pA2 (α1) ([1]; for 1-ethyl b174 = lot No. 1, b175 = lot No. 2): 4.00
- Kb [1]: 100 µM
- LD50 [2]: 200 mg/kg

SMILES: c1ccc2c(c1)OCC(Cc1ncc[nH]1)O2 (stereo not drawn) [2-(1,4-benzodioxan-2-ylmethyl)imidazole]
- Kb [1]: 0.794 µM
- LD50 [2]: 70 mg/kg

SMILES: CCn1ccnc1CC1COc2ccccc2O1 (stereo not drawn) [1-ethyl-2-(1,4-benzodioxane-2-ylmethyl)imidazole]
- inhibition at 1000 µM ([3]; inducer ADP (5 × 10^-6 M), at 10^-3 M, read-out: inhibition From Slope (Rate)): 20%
- IC50 ([3]; inducer ADP (5 × 10^-6 M), read-out: IC50 From Maximum Height (ΔT)): 1000 µM
- IC50 ([3]; inducer arachidonic acid (2.5 × 10^-4 M), read-out: IC50 From Maximum Height (ΔT)): 190 µM
- IC50 ([3]; inducer arachidonic acid (2.5 × 10^-4 M), read-out: IC50 From Slope (Rate)): 310 µM
- inhibition at 500 µM ([3]; inducer collagen (30&)): 27%
- IC50 ([3]; inducer collagen (30&), read-out: IC50 From Slope (Rate)): 450 µM
- inhibition at 50 µM ([3]; inducer epinephrine (5 × 10^-6 M), 5 × 10^-5 M, read-out: inhibition From Slope (Rate)): 99%
- inhibition at 500 µM ([3]; inducer epinephrine (5 × 10^-6 M)): 5%
- lowering of the mean systolic blood pressure compared with control group [4]: 29%

SMILES: CCCn1ccnc1CC1COc2ccccc2O1 (stereo not drawn) [1-propyl-2-(1,4-benzodioxan-2-ylmethyl)imidazole]
- Kb [1]: 63.1 µM
- LD50 [2]: 200 mg/kg
